{"source": "patent US20230115298A1", "about": "“METHOD FOR CONTROLLING THE GROWTH OF UNDESIRABLE VEGETATION” (UPL Limited, priority 2021, published 2023)", "system": "weedy Glycine max", "assay": "Greenhouse trials, post-emergence herbicidal efficacy of L-glufosinate, other herbicides and their combinations (observed vs Colby expected)", "assay_type": "in vivo", "settings": "for Control %: Table 1", "description": "Greenhouse trials were carried out to evaluate the efficacy of the combination of L-glufosinate and the other herbicides on weedy Glycine max. The soil used was sandy clay loam—Sand: 68.0%; Silt: 8.0%; Clay: 24.0%. All treatments were in 3 replications per treatment with a spray volume of […].\nThe expected efficacy of a combination of L-glufosinate and the other herbicides was calculated using the well-established Colby method. Any difference between the observed and “expected” efficacy could be attributed to synergy between the two compounds.\nIn the Colby method, the expected (or predicted) response of a combination of herbicides is calculated by taking the product of the observed response for each individual component of the combination when applied alone, divided by 100, and subtracting this value from the sum of the observed response for each component when applied alone. An unexpected enhancement in efficacy of the combination is then determined by comparing the observed response of the combination to the expected (or predicted) response as calculated from the observed response of each individual component alone. If the observed response of the combination is greater than the expected (or predicted) response, or stated conversely, if the difference between the observed and expected response is greater than zero, then the combination is said to be synergistic or unexpectedly effective (Colby, S. R., Weeds, 1967(15), p. 20-22). The Colby method requires only a single dose of each herbicide applied alone and the mixture of both doses. The formula used to calculate the expected efficacy (EE) which was compared with the observed efficacy (OE) to determine the efficacy of the present invention is explained hereinbelow:\nThe expected efficacy for a combination of two active ingredients is as follows:\nThe expected efficacy for a combination of three active ingredients is as follows:\n[…] The target weed was weedy Glycine max, and the concentration of the herbicide and the results are recorded in the table 1 below:", "key": {"[1]": {"settings": "14 DAA, dose a.i. g/h: L-glufosinate 150, oxyfluorfen 107.1, imazethapyr 75, carfentrazone 7.5"}, "[2]": {"settings": "21 DAA, dose a.i. g/h: L-glufosinate 150, oxyfluorfen 107.1, imazethapyr 75, carfentrazone 7.5"}, "[3]": {"settings": "28 DAA, dose a.i. g/h: L-glufosinate 150, oxyfluorfen 107.1, imazethapyr 75, carfentrazone 7.5"}, "[4]": {"settings": "35 DAA, dose a.i. g/h: L-glufosinate 150, oxyfluorfen 107.1, imazethapyr 75, carfentrazone 7.5"}}}
{"smiles": "O=C(O)COc1ccc(Cl)cc1Cl", "note": "[2,4-D]", "values": [{"measurement": "% control", "setting": "Table 4, 7 DAA, g ai/h: L-glufosinate 150, 2,4-D 204", "value": 41.7, "unit": "%"}, {"measurement": "% control", "setting": "Table 4, 14 DAA, g ai/h: L-glufosinate 150, 2,4-D 204", "value": 42.7, "unit": "%"}, {"measurement": "% control", "setting": "Table 4, 21 DAA, g ai/h: L-glufosinate 150, 2,4-D 204", "value": 50.7, "unit": "%"}, {"measurement": "% control", "setting": "Table 4, 28 DAA, g ai/h: L-glufosinate 150, 2,4-D 204", "value": 53.3, "unit": "%"}, {"measurement": "% control", "setting": "Table 4, 35 DAA, g ai/h: L-glufosinate 150, 2,4-D 204", "value": 48.3, "unit": "%"}]}
{"smiles": "Cc1nn(-c2cc(CC(Cl)C(=O)O)c(Cl)cc2F)c(=O)n1C(F)F", "note": "(stereo not shown) [Carfentrazone, carfentrazone]", "values": [{"measurement": "Control %", "setting": "[1]", "value": 50.3, "unit": "%"}, {"measurement": "Control %", "setting": "14 DAA, dose a.i. g/h: carfentrazone 9.0, L-glufosinate 150", "value": 51.7, "unit": "%"}, {"measurement": "Control %", "setting": "[2]", "value": 44.3, "unit": "%"}, {"measurement": "Control %", "setting": "21 DAA, dose a.i. g/h: carfentrazone 9.0, L-glufosinate 150", "value": 51.0, "unit": "%"}, {"measurement": "Control %", "setting": "[3]", "value": 44.3, "unit": "%"}, {"measurement": "Control %", "setting": "28 DAA, dose a.i. g/h: carfentrazone 9.0, L-glufosinate 150", "value": 51.0, "unit": "%"}, {"measurement": "Control %", "setting": "[4]", "value": 39.3, "unit": "%"}, {"measurement": "Control %", "setting": "35 DAA, dose a.i. g/h: carfentrazone 9.0, L-glufosinate 150", "value": 46.7, "unit": "%"}]}
{"smiles": "CCSC(C)CC1CC(=O)C(/C(CC)=N/OC/C=C/Cl)=C(O)C1", "note": "(stereo not shown) [Clethodim, clethodim]", "values": [{"measurement": "% control", "setting": "Table 6, 3 DAA, g ai/h: L-glufosinate 150, clethodim 45", "value": 0, "unit": "%"}, {"measurement": "% control", "setting": "Table 6, 7 DAA, g ai/h: L-glufosinate 150, clethodim 45", "value": 0, "unit": "%"}, {"measurement": "% control", "setting": "Table 6, 14 DAA, g ai/h: L-glufosinate 150, clethodim 45", "value": 0, "unit": "%"}, {"measurement": "% control", "setting": "Table 6, 21 DAA, g ai/h: L-glufosinate 150, clethodim 45", "value": 0, "unit": "%"}, {"measurement": "% control", "setting": "Table 6, 28 DAA, g ai/h: L-glufosinate 150, clethodim 45", "value": 0, "unit": "%"}, {"measurement": "% control", "setting": "Table 6, 35 DAA, g ai/h: L-glufosinate 150, clethodim 45", "value": 0, "unit": "%"}]}
{"smiles": "C#CCN1C(=O)COc2cc(F)c(N3C(=O)C4=C(CCCC4)C3=O)cc21", "note": "[Flumioxazin, flumioxazin]", "values": [{"measurement": "% control", "setting": "Table 3, 3 DAA, g ai/h: L-glufosinate 150, flumioxazin 30", "value": 7.7, "unit": "%"}, {"measurement": "% control", "setting": "Table 3, 7 DAA, g ai/h: L-glufosinate 150, flumioxazin 30", "value": 31.7, "unit": "%"}, {"measurement": "% control", "setting": "Table 3, 21 DAA, g ai/h: L-glufosinate 150, flumioxazin 30", "value": 40, "unit": "%"}, {"measurement": "% control", "setting": "Table 3, 28 DAA, g ai/h: L-glufosinate 150, flumioxazin 30", "value": 40, "unit": "%"}, {"measurement": "% control", "setting": "Table 3, 35 DAA, g ai/h: L-glufosinate 150, flumioxazin 30", "value": 30, "unit": "%"}]}
{"smiles": "O=C(O)CNCP(=O)(O)O", "note": "[Glyphosate, glyphosate]", "values": [{"measurement": "% control", "setting": "Table 2, 3 DAA, g ai/h: L-glufosinate 150, glyphosate 379", "value": 0, "unit": "%"}, {"measurement": "% control", "setting": "Table 2, 7 DAA, g ai/h: L-glufosinate 150, glyphosate 379", "value": 0, "unit": "%"}, {"measurement": "% control", "setting": "Table 2, 14 DAA, g ai/h: L-glufosinate 150, glyphosate 379", "value": 0, "unit": "%"}, {"measurement": "% control", "setting": "Table 2, 21 DAA, g ai/h: L-glufosinate 150, glyphosate 379", "value": 0, "unit": "%"}, {"measurement": "% control", "setting": "Table 2, 28 DAA, g ai/h: L-glufosinate 150, glyphosate 379", "value": 0, "unit": "%"}, {"measurement": "% control", "setting": "Table 2, 35 DAA, g ai/h: L-glufosinate 150, glyphosate 379", "value": 0, "unit": "%"}]}
{"smiles": "CC(Oc1ccc(Oc2ncc(C(F)(F)F)cc2Cl)cc1)C(=O)O", "note": "(stereo not shown) [Haloxyfop, haloxyfop]", "values": [{"measurement": "% control", "setting": "Table 7, 3 DAA, g ai/h: L-glufosinate 150, haloxyfop 50", "value": 5, "unit": "%"}, {"measurement": "% control", "setting": "Table 7, 7 DAA, g ai/h: L-glufosinate 150, haloxyfop 50", "value": 13.3, "unit": "%"}, {"measurement": "% control", "setting": "Table 7, 14 DAA, g ai/h: L-glufosinate 150, haloxyfop 50", "value": 15, "unit": "%"}, {"measurement": "% control", "setting": "Table 7, 21 DAA, g ai/h: L-glufosinate 150, haloxyfop 50", "value": 12.3, "unit": "%"}, {"measurement": "% control", "setting": "Table 7, 28 DAA, g ai/h: L-glufosinate 150, haloxyfop 50", "value": 12.3, "unit": "%"}, {"measurement": "% control", "setting": "Table 7, 35 DAA, g ai/h: L-glufosinate 150, haloxyfop 50", "value": 12.3, "unit": "%"}]}
{"smiles": "CCc1cnc(C2=NC(C)(C(C)C)C(=O)N2)c(C(=O)O)c1", "note": "(stereo not shown) [Imazethapyr, imazethapyr]", "values": [{"measurement": "Control %", "setting": "[1]", "value": 10, "unit": "%"}, {"measurement": "Control %", "setting": "[2]", "value": 20.0, "unit": "%"}, {"measurement": "Control %", "setting": "[3]", "value": 20.0, "unit": "%"}, {"measurement": "Control %", "setting": "[4]", "value": 15.0, "unit": "%"}]}
{"smiles": "CCOc1cc(Oc2ccc(C(F)(F)F)cc2Cl)ccc1[N+](=O)[O-]", "note": "[Oxyfluorfen, oxyfluorfen]", "values": [{"measurement": "Control %", "setting": "[1]", "value": 46.7, "unit": "%"}, {"measurement": "Control %", "setting": "[2]", "value": 45.0, "unit": "%"}, {"measurement": "Control %", "setting": "[3]", "value": 43.3, "unit": "%"}, {"measurement": "Control %", "setting": "[4]", "value": 35.0, "unit": "%"}]}
{"smiles": "O=C(O)COc1nc(Cl)c(Cl)cc1Cl", "note": "[Triclopyr, triclopyr]", "values": [{"measurement": "% control", "setting": "Table 5, 7 DAA, g ai/h: L-glufosinate 150, triclopyr 288", "value": 50, "unit": "%"}, {"measurement": "% control", "setting": "Table 5, 14 DAA, g ai/h: L-glufosinate 150, triclopyr 288", "value": 79.3, "unit": "%"}]}
